Test system: MDA-MB-231 cells
Assay: RPPA (reverse phase protein array)
Assay type: cell-based, human
Conditions: 1000nM
Method: RPPA analysis was performed by MD Anderson Cancer Center RPPA core facility.
Examination of the Molecular Signaling Events) and/or Downstream Pathways Responsible for the Migration and Invasion Effects Observed by Exemplary Compound Treatment. To pinpoint these observations to a molecular signaling event or specific downstream pathway, reverse phase protein array (RPPA) analysis was performed (Table 4).

CNC(=O)c1ccc(Nc2ncc(C(F)(F)F)c(NCc3nccnc3N(C)S(C)(=O)=O)n2)cc1 [Defactinib, defactinib, reference compound]
rel. Protein level, 4E-BP1: 115.6% | rel. Protein level, 4E-BP1_pS65: 91.8% | rel. Protein level, 14-3-3-beta: 98.4% | rel. Protein level, 14-3-3-zeta: 102.9% | rel. Protein level, 53BP1: 111.6% | rel. Protein level, A-Raf: 108.3% | rel. Protein level, ACC1: 95.9% | rel. Protein level, ACC_pS79: 102.5% | rel. Protein level, ADAR1: 111.8% | rel. Protein level, AMPK-a2_pS345: 98.1% | rel. Protein level, AMPKa: 105.6% | rel. Protein level, AMPKa_pT172: 101.3% | rel. Protein level, AR: 103.1% | rel. Protein level, ARID1A: 100.8% | rel. Protein level, ATM: 93.9% | rel. Protein level, ATM_pS1981: 99.4% | rel. Protein level, ATR_pS428: 93.7% | rel. Protein level, Akt: 99.2% | rel. Protein level, Akt_pS473: 79.3% | rel. Protein level, Akt_pT308: 97.2% | rel. Protein level, Annexin-I: 96.1% | rel. Protein level, Annexin-VII: 107.8% | rel. Protein level, Atg3: 98.1% | rel. Protein level, Atg7: 99.5% | rel. Protein level, Aurora-B: 91.9% | rel. Protein level, Axl: 76.0% | rel. Protein level, B7-H4: 102.6% | rel. Protein level, B-Raf: 104.8% | rel. Protein level, B-Raf_pS445: 108.8% | rel. Protein level, BAP1: 83.5% | rel. Protein level, BRD4: 108.7% | rel. Protein level, Bad_pS112: 103.3% | rel. Protein level, Bak: 103.1% | rel. Protein level, Bax: 106.4% | rel. Protein level, Bc1-xL: 100.4% | rel. Protein level, Bc12: 112.9% | rel. Protein level, Beclin_l: 99.2% | rel. Protein level, BiP-GRP78: 103.7% | rel. Protein level, Bid: 109.2% | rel. Protein level, Bim: 105.6% | rel. Protein level, C-Raf: 96.5% | rel. Protein level, C-Raf_pS338: 98.1% | rel. Protein level, CD4: 103.7% | rel. Protein level, CD20: 96.8% | rel. Protein level, CD29: 101.9% | rel. Protein level, CD31: 100.7% | rel. Protein level, CD44: 100.5% | rel. Protein level, CD45: 117.4% | rel. Protein level, CD49b: 105.5% | rel. Protein level, CD134: 100.5% | rel. Protein level, CDK1_pT14: 84.4% | rel. Protein level, COG3: 105.5% | rel. Protein level, Caspase-3: 108.3% | rel. Protein level, Caspase-7-cleaved-: 107.0% | rel. Protein level, Caspase-8: 97.2% | rel. Protein level, Caveolin-1: 135.0% | rel. Protein level, Chk2: 97.0% | rel. Protein level, Chk2_pT68: 106.0% | rel. Protein level, Chkl: 84.1% | rel. Protein level, Chkl_pS296: 98.2% | rel. Protein level, Claudin-7: 97.3% | rel. Protein level, Collagen-VI: 102.5% | rel. Protein level, Connexin-43: 86.5% | rel. Protein level, Cox2: 144.9% | rel. Protein level, Cox-IV: 101.8% | rel. Protein level, Creb: 103.7% | rel. Protein level, Cyclin-B1: 86.8% | rel. Protein level, Cyclin-D1: 100.5% | rel. Protein level, Cyclin-D3: 97.2% | rel. Protein level, Cyclin-E1: 101.8% | rel. Protein level, Cyclophilin-F: 85.5% | rel. Protein level, D-a-Tubulin: 98.2% | rel. Protein level, DJ1: 105.3% | rel. Protein level, DM-Histone-H3: 106.7% | rel. Protein level, DM-K9-Histone-H3: 108.9% | rel. Protein level, DUSP4: 135.6% | rel. Protein level, E2F1: 98.4% | rel. Protein level, E-Cadherin: 122.5% | rel. Protein level, EGFR: 93.7% | rel. Protein level, EGFR_pY1173: 100.8% | rel. Protein level, EMA: 102.2% | rel. Protein level, ENY2: 95.1% | rel. Protein level, ER: 99.6% | rel. Protein level, ER-a_pS118: 98.5% | rel. Protein level, ERCC1: 85.6% | rel. Protein level, ERCC5: 110.3% | rel. Protein level, Elk1_pS383: 97.3% | rel. Protein level, Ets-1: 90.6% | rel. Protein level, FAK: 116.1% | rel. Protein level, FAK_pY397: 93.5% | rel. Protein level, FASN: 98.1% | rel. Protein level, FOXM1: 90.3% | rel. Protein level, Fibronectin: 89.9% | rel. Protein level, FoxO3a: 104.9% | rel. Protein level, FoxO3a_pS318_S321: 99.0% | rel. Protein level, G6PD: 102.3% | rel. Protein level, GAPDH: 104.0% | rel. Protein level, GATA3: 91.1% | rel. Protein level, GATA-6: 99.4% | rel. Protein level, GCLM: 97.0% | rel. Protein level, GCN5L2: 94.5% | rel. Protein level, GSK-3a-b: 101.2% | rel. Protein level, GSK-3a-b_pS21_S9: 98.8% | rel. Protein level, Gab2: 94.6% | rel. Protein level, Glutamate-D1-2: 100.6% | rel. Protein level, Glutaminase: 100.6% | rel. Protein level, Granzyme-B: 102.7% | rel. Protein level, Gys: 107.0% | rel. Protein level, Gys_pS641: 106.2% | rel. Protein level, H2AX_pS140: 101.9% | rel. Protein level, HER2: 91.7% | rel. Protein level, HER2_pY1248: 101.5% | rel. Protein level, HER3: 98.5% | rel. Protein level, HER3_pY1289: 98.2% | rel. Protein level, HES1: 97.2% | rel. Protein level, HLA-DR-DP-DQ-DX: 98.9% | rel. Protein level, HSP27: 101.4% | rel. Protein level, HSP27_pS82: 114.2% | rel. Protein level, HSP70: 103.2% | rel. Protein level, Heregulin: 109.2% | rel. Protein level, Hexokinase-II: 98.0% | rel. Protein level, Hif-l-alpha: 116.1% | rel. Protein level, Histone-H3: 123.3% | rel. Protein level, IGF1R_pY1135_Y1136: 98.7% | rel. Protein level, IGFBP2: 90.9% | rel. Protein level, IGFRb: 99.7% | rel. Protein level, INPP4b: 99.6% | rel. Protein level, IR-b: 110.0% | rel. Protein level, IRF-1: 104.1% | rel. Protein level, IRS1: 96.1% | rel. Protein level, JNK2: 111.4% | rel. Protein level, JNK_pT183_Y185: 99.7% | rel. Protein level, Jagged1: 107.3% | rel. Protein level, Jak2: 104.3% | rel. Protein level, LC3A-B: 102.5% | rel. Protein level, LDHA: 121.2% | rel. Protein level, LRP6_pS1490: 109.2% | rel. Protein level, Lck: 101.9% | rel. Protein level, MAPK_pT202-Y204: 98.0% | rel. Protein level, MCT4: 119.5% | rel. Protein level, MDM2_pS166: 92.3% | rel. Protein level, MEK1: 110.2% | rel. Protein level, MEK1_p_S217-S221: 98.0% | rel. Protein level, MERIT40_pS29: 91.1% | rel. Protein level, MIF: 118.6% | rel. Protein level, MIG6: 133.9% | rel. Protein level, MMP2: 103.4% | rel. Protein level, MMP14-[EP1264Y]: 138.0% | rel. Protein level, MMP-14: 139.1% | rel. Protein level, MSH6: 99.2% | rel. Protein level, MSI2: 100.7% | rel. Protein level, Mcl-1: 101.9%

From patent US20200038513A1, “MODULATORS OF FAK PROTEOLYSIS AND ASSOCIATED METHODS OF USE” (ARVINAS OPERATIONS, INC., priority 2018, published 2020)
